The values below come from PubChem BioAssay AID1919013 (Molecular Pharmacology Branch, DTP, NCI, 2023).

In the test the test system is LG0703-F498-PDC complex spheroid growth. Description: Anticancer human tumor LG0703-F498-PDC patient-derived lung adenocarcinoma cell line growth inhibition [AhR]. Particulars: for viability, T/C: stronger effect = lower value. The method in brief:
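Spheroids combined tumor cells with HUVEC endothelial cells and human MSCs as stroma. AhR antagonists were paired with standard or investigational drugs, each dosed in half-log steps down from near clinical Cmax, or from 10 microM where Cmax was unknown.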

Values joined by “and” are separate entries in the source; they are usually repeats but may differ in a detail not shown here. Identical values can stand only once. A value given as a limit tells only on which side of the number the result lay.

As a reminder, the viability, T/C is the ratio of treated to control. The IC50 is the concentration at which inhibition is half-maximal.
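Further: luminescence taken as a proxy for viable cell amount.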
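Wherever viability, T/C is given: percent of DMSO vehicle control where 100% means growth equal to vehicle.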

On to `Nc1ncn(C2CC(O)C(CO)S2)c(=O)n1` (configuration not stated), for which the viability, T/C reads like this: (compound 0.000949 µM) 103% and 105% and 108%; (compound 0.003 µM) 92.8% and 98.3% and 109%; (compound 0.00949 µM) 95.4% and 103% and 105%; (compound 0.03 µM) 99.9% and 97.8% and 99.8%; (compound 0.0949 µM) 113% (2×) and 107%; (compound 0.3 µM) 97.1% and 96.6% and 98.7%. For the same molecule, the IC50 (curve of compound) is over 0.3 µM.
As to `COc1ccc([C@@H](O)c2cc(-c3ncnc4cc(N5CCOCC5)ccc34)c(F)cc2Cl)nn1` + Cc1cncc(-c2nc(NCCc3c[nH]c4ccccc34)c3ncn(C(C)C)c3n2)c1, the IC50 runs as follows: (curve of first compound, second compound 0.1 µM) 5.42 µM; (curve of first compound, second compound 0.316 µM) 4.81 µM; (curve of first compound, second compound 1 µM) 4.59 µM; (curve of first compound, second compound 3.16 µM) under 0.0316 µM; (curve of first compound, second compound 10 µM) under 0.0316 µM. The viability, T/C (second compound 0.1 µM, first compound 0.0316 µM) was 87.8%; the viability, T/C (second compound 0.1 µM, first compound 0.1 µM) is 107%; the viability, T/C (second compound 0.1 µM, first compound 0.316 µM) was 98.1%; the viability, T/C (second compound 0.1 µM, first compound 1 µM) is 82.2%; the viability, T/C (second compound 0.1 µM, first compound 3.16 µM) was 65.3%; the viability, T/C (second compound 0.1 µM, first compound 10 µM) is 34%. Also, the viability, T/C is, setting by setting: (second compound 0.316 µM, first compound 0.0316 µM) 105%; (second compound 0.316 µM, first compound 0.1 µM) 97%; (second compound 0.316 µM, first compound 0.316 µM) 97.8%; (second compound 0.316 µM, first compound 1 µM) 82%; (second compound 0.316 µM, first compound 3.16 µM) 63.5%; (second compound 0.316 µM, first compound 10 µM) 27.5%. Also, the viability, T/C runs as follows: (second compound 1 µM, first compound 0.0316 µM) 95.9%; (second compound 1 µM, first compound 0.1 µM) 104%; (second compound 1 µM, first compound 0.316 µM) 103%; (second compound 1 µM, first compound 1 µM) 92.4%; (second compound 1 µM, first compound 3.16 µM) 60.4%; (second compound 1 µM, first compound 10 µM) 28.7%. In addition, the viability, T/C by setting is: (second compound 3.16 µM, first compound 0.0316 µM) 36.7%; (second compound 3.16 µM, first compound 0.1 µM) 42.4%; (second compound 3.16 µM, first compound 0.316 µM) 34%; (second compound 3.16 µM, first compound 1 µM) 27.4%; (second compound 3.16 µM, first compound 3.16 µM) 17.8%; (second compound 3.16 µM, first compound 10 µM) 13%. The viability, T/C was 1.26% (second compound 10 µM, first compound 0.0316 µM); 1% (second compound 10 µM, first compound 0.1 µM); 1.42% (second compound 10 µM, first compound 0.316 µM); 1.17% (second compound 10 µM, first compound 1 µM); 0.52% (second compound 10 µM, first compound 3.16 µM); 1.67% (second compound 10 µM, first compound 10 µM).
